Laboratory results as given in ChEMBL document CHEMBL3132833, “3,4,2-Trimethoxy-trans-stilbene a potent CYP1B1 inhibitor” (Medchemcomm, 2014).
≈ marks a conversion by molar mass, not a printed value.

Experiments:
Homo sapiens [1] = species: Homo sapiens; assay: Selectivity ratio of IC50 for human recombinant CYP1A1 to IC50 for human recombinant CYP1B1
Homo sapiens [2] = species: Homo sapiens; assay: Selectivity ratio of IC50 for human recombinant CYP1A2 to IC50 for human recombinant CYP1B1
Cytochrome P450 1B1 = biological target: T1, Cytochrome P450 1B1 (Homo sapiens, UniProt Q16678); assay: Inhibition of human recombinant CYP1B1 after 15 mins by 7-ethoxyresorufin-O-deethylation-based spectrofluorimetry
T1 sequence (Q16678 whole entry): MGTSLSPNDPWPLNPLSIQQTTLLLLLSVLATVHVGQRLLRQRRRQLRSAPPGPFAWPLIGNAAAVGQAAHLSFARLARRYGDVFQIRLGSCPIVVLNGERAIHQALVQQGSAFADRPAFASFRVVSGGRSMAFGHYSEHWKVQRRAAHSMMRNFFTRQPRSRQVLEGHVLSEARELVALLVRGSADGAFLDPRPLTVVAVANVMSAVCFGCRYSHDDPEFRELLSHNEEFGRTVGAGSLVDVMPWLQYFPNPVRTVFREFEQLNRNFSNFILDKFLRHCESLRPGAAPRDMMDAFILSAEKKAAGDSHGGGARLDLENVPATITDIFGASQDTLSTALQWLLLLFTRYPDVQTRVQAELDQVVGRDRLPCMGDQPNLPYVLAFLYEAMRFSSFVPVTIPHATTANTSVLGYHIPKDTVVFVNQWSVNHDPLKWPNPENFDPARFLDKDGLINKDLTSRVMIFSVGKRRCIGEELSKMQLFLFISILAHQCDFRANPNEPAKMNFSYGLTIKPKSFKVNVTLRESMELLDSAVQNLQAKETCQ

Cytochrome P450 1A2 = biological target: T2, Cytochrome P450 1A2 (Homo sapiens, UniProt P05177); assay: Inhibition of human recombinant CYP1A2 after 15 mins by 7-ethoxyresorufin-O-deethylation-based spectrofluorimetry
T2 sequence (P05177 whole entry): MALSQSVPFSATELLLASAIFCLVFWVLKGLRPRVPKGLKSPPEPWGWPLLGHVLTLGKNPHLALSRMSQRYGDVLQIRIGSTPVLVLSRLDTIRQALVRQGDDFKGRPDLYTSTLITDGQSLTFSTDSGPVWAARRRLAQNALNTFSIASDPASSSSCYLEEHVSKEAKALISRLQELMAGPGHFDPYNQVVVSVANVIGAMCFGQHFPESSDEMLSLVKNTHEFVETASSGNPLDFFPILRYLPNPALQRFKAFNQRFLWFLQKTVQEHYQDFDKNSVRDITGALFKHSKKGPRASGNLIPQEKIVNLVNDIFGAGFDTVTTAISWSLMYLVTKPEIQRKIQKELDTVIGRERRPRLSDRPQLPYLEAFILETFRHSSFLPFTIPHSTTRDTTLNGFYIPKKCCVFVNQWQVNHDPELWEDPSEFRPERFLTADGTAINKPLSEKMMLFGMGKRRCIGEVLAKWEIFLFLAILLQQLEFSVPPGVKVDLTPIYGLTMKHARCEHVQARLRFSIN

Cytochrome P450 1A1 = biological target: T3, Cytochrome P450 1A1 (Homo sapiens, UniProt P04798); assay: Inhibition of human recombinant CYP1A1 after 15 mins by 7-ethoxyresorufin-O-deethylation-based spectrofluorimetry
T3 sequence (P04798 whole entry): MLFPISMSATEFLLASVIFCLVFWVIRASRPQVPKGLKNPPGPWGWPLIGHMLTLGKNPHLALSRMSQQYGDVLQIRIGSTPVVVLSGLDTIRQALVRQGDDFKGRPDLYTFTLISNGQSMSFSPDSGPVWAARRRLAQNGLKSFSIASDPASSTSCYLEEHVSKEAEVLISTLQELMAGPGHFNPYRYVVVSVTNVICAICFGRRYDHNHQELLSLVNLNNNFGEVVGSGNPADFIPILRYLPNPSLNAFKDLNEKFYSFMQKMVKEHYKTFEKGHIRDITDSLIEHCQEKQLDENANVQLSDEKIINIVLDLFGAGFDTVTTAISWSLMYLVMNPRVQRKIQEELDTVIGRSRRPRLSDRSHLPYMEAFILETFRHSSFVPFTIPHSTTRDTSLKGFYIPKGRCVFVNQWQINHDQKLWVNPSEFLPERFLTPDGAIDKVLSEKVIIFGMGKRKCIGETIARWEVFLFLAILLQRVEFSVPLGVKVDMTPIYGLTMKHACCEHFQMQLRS

Col2 = assay: Cytotoxicity against human Col2 cells; format: functional, cell-based

SMILES | Ratio IC50 (Homo sapiens [1]) | Ratio IC50 (Homo sapiens [2]) | IC50 (Cytochrome P450 1B1) | IC50 (Cytochrome P450 1A2) | IC50 (Cytochrome P450 1A1) | IC50 (Col2)
COc1ccc(/C=C/c2cc(O)cc(O)c2)cc1 [RESVERATROL 4'-METHYL ETHER] | – | – | 800 nM | – | – | –
COc1cc(/C=C/c2ccc(O)cc2)cc(OC)c1 [PTEROSTILBENE] | – | – | 1400 nM | – | – | –
COc1cc(OC)c(OC)cc1/C=C/c1ccc(OC)c(OC)c1 | 0.4 | > 22.5 | 4440 nM | > 100000 nM | 1780 nM | –
COc1cc(/C=C/c2ccc(OC)cc2OC)cc(OC)c1 | – | – | – | – | – | 0.8 µg/mL (≈ 2.66 µM)
COc1cc(O)cc(/C=C/c2ccc(O)cc2)c1 | – | – | 2100 nM | – | – | –
COc1ccc(/C=C/c2ccc(OC)c(OC)c2OC)cc1OC | 1.2 | > 24 | 4170 nM | > 100000 nM | 5180 nM | –

Further compounds by falling IC50 (Cytochrome P450 1B1), results first:

Ratio IC50 (Homo sapiens [1]) | Ratio IC50 (Homo sapiens [2]) | IC50 (Cytochrome P450 1B1) | IC50 (Cytochrome P450 1A2) | IC50 (Cytochrome P450 1A1) | SMILES | IC50 (Col2)
0.8 | > 160 | 620 nM | > 100000 nM | 500 nM | COc1ccc(OC)c(/C=C/c2ccc(OC)c(OC)c2)c1 | –
1.2 | 43.3 | 370 nM | 16000 nM | 450 nM | COc1ccc(/C=C/c2cccc(OC)c2OC)cc1OC | –
0.74 | 7.5 | 310 nM | 2310 nM | 230 nM | COc1ccc(/C=C/c2c(OC)cccc2OC)cc1OC | –
0.9 | > 333 | 300 nM | > 100000 nM | 270 nM | COc1cc(OC)c(/C=C/c2ccc(OC)c(OC)c2)c(OC)c1 | –
1.5 | 20.1 | 300 nM | 6040 nM | 440 nM | COc1ccc(/C=C/c2ccccc2)cc1OC | –
2.4 | > 480 | 210 nM | > 100000 nM | 510 nM | COc1ccc(/C=C/c2ccc(OC)c(OC)c2)c(OC)c1 | –
90 | 830 | 4 nM | 3320 nM | 360 nM | COc1ccccc1/C=C/c1ccc(OC)c(OC)c1 | –
